Molecules are shown by their SMILES. In brackets after ≈: the same amount, converted by molar mass. Where two headings read alike, the source gives them in different places.

The values below come from US12173018B2, “Penicillin-binding protein inhibitors” (priority 2018, dated 2024).

One assay addresses E. coli PBP3 (Escherichia coli (strain K12), UniProt P0AD68). In words: E. coli PBP3 Bocillin-FL fluorescence polarization competition binding assay. The method in brief:
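FP competition: 1.5 μM PBP, 0.1 μM Bocillin-FL, cpd 0–1000 μM; 50 mM Hepes pH 8.0/300 mM NaCl/5% glycerol. Read 490/520 nm immediately after Bocillin-FL addition, 60 min. EC50 = cpd conc. lowering probe binding.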
A general note: Fluorescence polarisation rises when a labelled molecule tumbles more slowly, as on binding a larger partner.

In a further assay the target is E. coli PBP1a (Escherichia coli (strain K12), UniProt P02918). Briefly: Radioligand competition binding assay with 14C-labeled boronic acid probe, PBP1a. The source says:
To determine the ability of boronic acid-based test PBP inhibitors to bind Penicillin Binding Proteins (PBPs), a radio-labelled boronic acid PBP inhibitor
[drawing 751] was used in competition binding assays to determine boronic acid PBP inhibitor binding to PBP1a or PBP1b from Escherichia coli. PBP1a and PBP1b were purified as described previously (Bertsche, U.; et al., J. Biol. Chem. 2005, 280 (45), 38096-38101; Born, P.; et al., J. Biol. Chem. 2006. 281 (37), 26985-26993). To establish assay conditions for competition binding, an enzyme titration/saturation binding experiment was performed. Saturation binding was performed in a buffer comprised of 20 mM Tris (pH 7.5), 500 mM NaCl and 0.1% (v/v) TritonX-100, with PBP1a/PBP1b at a final concentration of 0.1 μM and Compound A at final concentrations ranging from 0-100 μM. Mixtures were incubated for 60 minutes, then applied to Zeba Spin Desalting columns or plates (ThermoFisher Scientific) and centrifuged at 1000-1500×g for 2 minutes. The flow through, containing PBP bound with Compound A, was recovered and 100 μL mixed with 5 mL of UltimaGold liquid scintillation cocktail (Perkin Elmer), and the radioactivity counted using a Beckman Coulter LS 6500 Multipurpose scintillation counter. PBP binding of Compound A approached saturation at 20 μM of ^14C-labeled probe. The competition binding assay was validated using the beta-lactam ampicillin, with Compound A at a final concentration of 20 μM, PBP1a/PBP1b at a final concentration of 0.1 μM. PBP1a/PBP1b was incubated with ampicillin in a 96-well microplate for 60 minutes, then Compound A was added and the mixtures incubated for an additional 60 minutes. The mixtures were then applied to Zeba Spin desalting plates and centrifuged at 1000×g for 2 minutes. The flow through was recovered and 100 μl mixed with 5 ml of UltimaGold liquid scintillation cocktail and the radioactivity counted. […] Binding assays with boronic acid PBP inhibitors were performed in an identical fashion. The potency of boronic acid PBP inhibitors was reported as the EC50 value.
(In a radioligand displacement assay an active substance lowers the binding of a labelled ligand.)

The test system of assay [1] is engineered strain of Escherichia coli harboring CTX-M15. Briefly: microbe, parasite or virus in culture. The class given is cell-based. To be noted: Escherichia coli, read-out: Microbiological Activity (MIC in mg/L), E. coli DH5α/pLBII-CTX-M15, engineered strain producing CTX-M15.
The next assay concerns E. coli ATCC 25922. In words: Broth microdilution MIC, E. coli ATCC 25922. The class given is cell-based. To be noted: Escherichia coli, ATCC25922; E. coli ATCC 25922, broth microdilution; read-out: MIC E. coli 25922. The method in brief: (§1)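 Colonies from Mueller Hinton II agar were grown 3-5 hours at 37° C in cation-supplemented broth, adjusted by OD600, then added to 2-fold compound dilutions at 5×10^5 CFU/mL. After 16-20 hours at 37° C, MICs were scored visually.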
(Broth dilution looks for growth in wells or tubes with falling amounts of substance.)

The next assay concerns E. coli AG100. In words: Broth microdilution MIC, E. coli AG100 (wild-type parent). In kind it is cell-based. To be noted: Escherichia coli; wild-type parent E. coli AG100, broth microdilution; read-out: MIC E. coli AG100. Summed up:
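Starting inoculum of 5×10^5 CFU/mL, from colonies grown 3-5 h in Mueller-Hinton broth with divalent cations, added to two-fold compound dilution series.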

A further assay concerns E. coli 901C. Briefly: microbe, parasite or virus in culture. The class given is cell-based. To be noted: Escherichia coli; hyper-permeable E. coli 901C, broth microdilution; read-out: MIC E. coli 901C. Summed up: as §1
The test system of a further assay is E. coli AG100A. Briefly: microbe, parasite or virus in culture. In kind it is cell-based. To be noted: Escherichia coli, read-out: MIC E. coli AG100A. Summed up:
as §1

The next assay relates to K. pneumoniae UMM. Briefly: microbe, parasite or virus in culture. The class given is cell-based. To be noted: Klebsiella pneumoniae; K. pneumoniae UMM producing SHV-5 and KPC-2; read-out: MIC K. pneumoniae UMM. Summed up:
as §1

Another assay addresses E. coli PBP2 (Escherichia coli (strain K12), UniProt P0AD65). Briefly: E. coli PBP2 Bocillin-FL fluorescence polarization competition binding assay. To be noted: fluorescence polarization competition binding with Bocillin-FL; read-out: E. coli K12 PBP2 Potency (EC50). The source says:
To determine the ability of boronic acid-based test PBP inhibitors to bind Penicillin Binding Proteins (PBPs), Bocillin-FL (fluorescently-labeled penicillin V; ThermoFisher Scientific) was used in a fluorescence polarization (FP) competition binding assay to assess inhibitor binding to PBP2, PBP3 or PBP4 from Escherichia coli. PBPs were cloned and purified as described previously (King, D. T, et al., ACS Infectious Diseases 2015, 1, 175-184). To establish assay conditions for competition binding, an enzyme titration/saturation binding experiment was initially performed. Bocillin-FL was prepared at 0.2 μM in a buffer comprised of 50 mM Hepes (pH 8.0), 300 mM NaCl and 5% (v/v) glycerol. Saturation binding was performed by mixing 40 μl of PBP solutions ranging in concentrations from 0-12 μM with 40 μl of the 0.2 μM Bocillin-FL solution, in individual wells of a black 384-well microplate. FP was measured immediately upon mixing (Excitation, 490 nm; Emission, 520 nm; g-factor, 0.96), using a Cytation3 (BioTek) microplate reader and measured continuously for up to 120 minutes. […] For all PBPs the FP signal approached saturation with 1.5 μM PBP (final concentration). […] Assays (80 μl final volume) were performed with PBPs at a final concentration of 1.5 μM, Bocillin-FL at 0.1 μM and beta-lactam concentrations that ranged from 0-1000 μM. […] Bocillin-FL was added and the FP immediately measured for 60 minutes (90 minutes for PBP2). The beta-lactam potency was reported as the concentration of beta-lactam required to reduce binding of Bocillin-FL by […] (EC50). […] Binding assays for boronic acid PBP inhibitors were performed in an identical fashion.

Assay [2] deals with P. aeruginosa (ΔmexAB-oprM). In words: microbe, parasite or virus in culture. The class given is cell-based. To be noted: Pseudomonas aeruginosa, read-out: MIC P. aeruginosa ΔmexAB-OprM. The method in brief:
as §1

The subject of a further assay is P. aeruginosa ATCC 35151. Briefly: microbe, parasite or virus in culture. To be noted: Pseudomonas aeruginosa, ATCC35151; hyper-permeable P. aeruginosa ATCC 35151; read-out: MIC P. aeruginosa ATCC 35151. In kind it is cell-based. Summed up:
as §1

The test system of another assay is P. aeruginosa PAO1. In words: Broth microdilution MIC, P. aeruginosa PAO1. In kind it is cell-based. To be noted: Pseudomonas aeruginosa; P. aeruginosa PAO1, broth microdilution; read-out: MIC P. aeruginosa PAO1. Summed up: as §1
For the next assay, the system named is A. baumannii ATCC 19606. Briefly: Broth microdilution MIC, A. baumannii ATCC 19606. To be noted: Acinetobacter baumannii, ATCC19606; A. baumannii ATCC 19606, broth microdilution; read-out: MIC A. baumannii ATCC 19606. In kind it is cell-based. How it is done: To determine the ability of test compounds to potentiate the inhibition of the growth of bacterial strains, classic cell based broth microdilution minimum inhibitory concentration (MIC) assays were employed. MIC assays are performed according to CLSI methods except where otherwise noted (CLSI, 2011 and CLSI, 2009). The reference type strain E. coli ATCC 25922, the wild-type parent strain E. coli AG100, the hyper-permeable E. coli 901C and E. coli D22 and the E. coli AG100A strain lacking the acrAB efflux pump encoding genes were used to determine the ability of the PBP inhibitors to penetrate the outer membrane of gram-negative bacteria and inhibit bacterial growth. […] The P. aeruginosa PAO1, P. aeruginosa ATCC 27853 and A. baumannii ATCC 19606, along with the hyper-permeable P. aeruginosa ATCC 35151 and an engineered efflux pump-compromised strain of P. aeruginosa (ΔmexAB-oprM) were used to determine the ability of PBP inhibitors to penetrate the outer membrane of P. aeruginosa and A. baumannii and assess antibacterial activity against these important gram-negative organisms.
Briefly, cryo-preserved bacterial cultures of challenge strains are streaked for isolation on appropriate agar medium, in this case Mueller Hinton II agar. Following incubation to allow growth of the colonies, plates are sealed with parafilm and stored refrigerated for up to two weeks. For preparation of assay inoculum and to ensure low variability, at least 5 colonies are picked from the agar plates with an inoculating loop and aseptically transferred to a culture tube containing 3 mL of Mueller-Hinton Broth (supplemented with divalent cations to required levels based on Manufacturers' certification). The broth culture is grown for 3-5 hours at 37° C. with shaking at 200 rpm. Meanwhile, 2-fold serial dilutions of test compounds are conducted in a 96 well plate with a final volume of 75 μL per well at 2-fold the final desired concentration. After the dilution plates are set up the growing cultures are then diluted in a cuvette containing MH II broth and the optical density is measured at 600 nm. The Inoculum is diluted such that 75 μL of this culture in Mueller-Hinton Broth results in a starting bacterial concentration of 5×10^5 CFU/mL when added to the dilution plates. The plates are incubated for 16-20 hours at 37° C. The MIC values are read visually as the lowest concentration well with no bacterial growth.

E. coli PBP3, sequence (P0AD68 whole entry): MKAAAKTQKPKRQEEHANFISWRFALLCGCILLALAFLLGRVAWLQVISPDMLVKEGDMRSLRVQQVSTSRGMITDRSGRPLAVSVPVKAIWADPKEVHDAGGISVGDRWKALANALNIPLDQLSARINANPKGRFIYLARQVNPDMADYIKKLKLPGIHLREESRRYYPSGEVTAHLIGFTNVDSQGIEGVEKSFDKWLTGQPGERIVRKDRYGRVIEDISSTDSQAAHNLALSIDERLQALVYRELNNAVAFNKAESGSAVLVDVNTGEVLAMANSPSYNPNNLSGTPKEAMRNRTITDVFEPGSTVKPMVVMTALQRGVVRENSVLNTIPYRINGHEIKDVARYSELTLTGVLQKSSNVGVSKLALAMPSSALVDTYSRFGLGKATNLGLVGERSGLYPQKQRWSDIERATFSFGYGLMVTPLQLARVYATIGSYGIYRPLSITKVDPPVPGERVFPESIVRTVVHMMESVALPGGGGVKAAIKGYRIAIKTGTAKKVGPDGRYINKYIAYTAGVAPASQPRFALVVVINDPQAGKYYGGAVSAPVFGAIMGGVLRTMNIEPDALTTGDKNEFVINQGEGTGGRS
E. coli PBP1a, sequence (P02918 whole entry): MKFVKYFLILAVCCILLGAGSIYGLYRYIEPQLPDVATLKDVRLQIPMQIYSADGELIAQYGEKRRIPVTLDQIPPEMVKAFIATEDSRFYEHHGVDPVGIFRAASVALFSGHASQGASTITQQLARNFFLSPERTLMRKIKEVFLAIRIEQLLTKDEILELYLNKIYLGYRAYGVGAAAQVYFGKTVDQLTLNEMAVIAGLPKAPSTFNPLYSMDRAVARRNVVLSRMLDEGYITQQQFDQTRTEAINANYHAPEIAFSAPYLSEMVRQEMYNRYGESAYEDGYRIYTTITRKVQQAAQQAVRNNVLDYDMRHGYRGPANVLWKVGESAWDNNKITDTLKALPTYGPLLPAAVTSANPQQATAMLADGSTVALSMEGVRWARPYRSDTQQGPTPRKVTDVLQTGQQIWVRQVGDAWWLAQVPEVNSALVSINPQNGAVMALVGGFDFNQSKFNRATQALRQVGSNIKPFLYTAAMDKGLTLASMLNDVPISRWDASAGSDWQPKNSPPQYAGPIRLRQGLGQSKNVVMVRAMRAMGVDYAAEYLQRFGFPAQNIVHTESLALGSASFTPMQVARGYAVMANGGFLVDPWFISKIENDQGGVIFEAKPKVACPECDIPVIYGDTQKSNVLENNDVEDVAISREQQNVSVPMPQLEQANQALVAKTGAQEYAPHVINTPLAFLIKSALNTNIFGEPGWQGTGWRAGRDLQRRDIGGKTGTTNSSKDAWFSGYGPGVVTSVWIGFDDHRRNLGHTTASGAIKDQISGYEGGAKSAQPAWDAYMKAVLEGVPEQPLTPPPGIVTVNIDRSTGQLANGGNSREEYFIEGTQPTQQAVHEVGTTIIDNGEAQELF
E. coli PBP2, sequence (P0AD65 whole entry): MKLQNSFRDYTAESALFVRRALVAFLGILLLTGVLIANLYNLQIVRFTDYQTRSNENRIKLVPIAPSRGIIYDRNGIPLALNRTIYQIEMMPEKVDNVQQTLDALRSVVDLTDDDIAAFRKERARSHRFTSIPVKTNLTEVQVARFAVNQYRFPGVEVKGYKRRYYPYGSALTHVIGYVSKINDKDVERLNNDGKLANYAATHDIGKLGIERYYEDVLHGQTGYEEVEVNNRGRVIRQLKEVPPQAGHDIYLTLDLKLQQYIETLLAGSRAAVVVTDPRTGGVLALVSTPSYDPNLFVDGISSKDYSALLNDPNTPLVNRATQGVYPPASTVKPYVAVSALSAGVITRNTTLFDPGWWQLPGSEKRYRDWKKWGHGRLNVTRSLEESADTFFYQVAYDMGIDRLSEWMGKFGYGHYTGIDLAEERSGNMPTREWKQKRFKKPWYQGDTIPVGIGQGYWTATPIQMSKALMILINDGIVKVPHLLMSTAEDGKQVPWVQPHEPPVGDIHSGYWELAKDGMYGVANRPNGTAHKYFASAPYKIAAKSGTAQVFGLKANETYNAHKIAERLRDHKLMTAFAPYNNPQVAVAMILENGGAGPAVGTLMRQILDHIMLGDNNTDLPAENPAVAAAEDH

Consider `CCN1CCN(C(=O)NC(C(=O)N[C@H]2Cc3cccc(C(=O)O)c3OB2O)C(O)c2ccc(O)c(O)c2)C(=O)C1=O` (stereo partly drawn) [Example 46, (3R)-3-(3-(3,4-dihydroxyphenyl)-2-(4-ethyl-2,3-dioxopiperazine-1-carboxamido)-3-hydroxypropanamido)-2-hydroxy-3,4-dihydro-2H-benzo[e][1,2]oxaborinine-8-carboxylic acid], for which the EC50 at E. coli PBP3 is 30 to 500 µM; on E. coli PBP1a, less than 10 µM.

With `CCN1CCN(C(=O)NC(C(=O)N[C@H]2Cc3cccc(C(=O)O)c3OB2O)c2ccc(OCCF)cc2)C(=O)C1=O` (stereo partly drawn) [Example 76, (3R)-3-(2-(4-ethyl-2,3-dioxopiperazine-1-carboxamido)-2-(4-(2-fluoroethoxy)phenyl)acetamido)-2-hydroxy-3,4-dihydro-2H-benzo[e][1,2]oxaborinine-8-carboxylic acid], the figures for the EC50 on E. coli PBP3 and at E. coli PBP1a were 30 to 500 µM and less than 10 µM, respectively. In addition, the MIC in [1] was in the range of 128 to 256 mg/L (≈ 224 to 449 µM).

Turning to `CCN1CCN(C(=O)NC(C(=O)N[C@H]2Cc3cccc(C(=O)O)c3OB2O)c2ccc(O)nc2F)C(=O)C1=O` (stereo partly drawn) [Example 86, (3R)-3-(2-(4-ethyl-2,3-dioxopiperazine-1-carboxamido)-2-(2-fluoro-6-hydroxypyridin-3-yl)acetamido)-2-hydroxy-3,4-dihydro-2H-benzo[e][1,2]oxaborinine-8-carboxylic acid], the EC50 at E. coli PBP3 was 30 to 500 µM; on E. coli PBP1a, less than 10 µM. Besides, the MIC in assay [1] was in the range of 128 to 256 mg/L (≈ 236 to 471 µM).

Turning to `O=C(O)c1cccc2c1OB(O)[C@@H](NC(=O)C(NC(=O)N1CCN(CCF)C(=O)C1=O)c1ccc(O)cn1)C2` (stereo partly drawn) [Example 99, (3R)-3-(2-(4-(2-fluoroethyl)-2,3-dioxopiperazine-1-carboxamido)-2-(5-hydroxypyridin-2-yl)acetamido)-2-hydroxy-3,4-dihydro-2H-benzo[e][1,2]oxaborinine-8-carboxylic acid], the EC50 on E. coli PBP3 (fluorescence polarization competition binding with Bocillin-FL, read-out: E. coli K12 PBP3 Potency) is less than 30 µM; on E. coli PBP1a, 10 to 100 µM. In addition, the MIC is 32 to 64 µg/mL in the assay on E. coli ATCC 25922; 32 to 64 µg/mL in the assay with E. coli AG100; less than 0.25 µg/mL with E. coli 901C; 2 to 4 µg/mL in the assay on E. coli AG100A; 8 to 16 µg/mL in the assay on K. pneumoniae UMM; 32 to 64 mg/L (≈ 58.9 to 118 µM) in assay [1].

In the case of `CCN1CCN(C(=O)N[C@@H](C(=O)N[C@H]2Cc3ccc(F)c(C(=O)O)c3OB2O)c2ccsc2)C(=O)C1=O` [Example 138, (R)-3-((R)-2-(4-ethyl-2,3-dioxopiperazine-1-carboxamido)-2-(thiophen-3-yl)acetamido)-7-fluoro-2-hydroxy-3,4-dihydro-2H-benzo[e][1,2]oxaborinine-8-carboxylic acid], the EC50 is less than 30 µM on E. coli PBP3 and greater than 500 µM at E. coli PBP2. Besides, the MIC in [2] is 32 to 64 µg/mL; in the assay with P. aeruginosa ATCC 35151, 0.5 to 1 µg/mL; in the assay on P. aeruginosa PAO1, greater than 128 µg/mL; in the assay with A. baumannii ATCC 19606, greater than 128 µg/mL.
